Source: article PMC5349910, “Discovery of BPR1K871, a quinazoline based, multi-kinase inhibitor for the treatment of AML and solid tumors: Rational design, synthesis, in vitro and in vivo evaluation” (Oncotarget, 2016)
“Also recorded” adds a separate entry of the source.

Key:
[1] = system: H2228 cells; assay: Anti-proliferative activity, H2228; format: cell-based; conditions: Homo sapiens, NCI-H2228; NSCLC-ALK; supplement values ± SEM; read-out: H2228 EC50
[2] = system: FLT3 phosphorylation (pFLT3 at residue Y591); assay: Western blot, FLT3 phosphorylation in MV4-11 cells; format: cell-based, human; conditions: 2.0 h
Method: In order to understand the mode of action of BPR1K871, mechanistic studies in MV4-11 cell line using western blot analysis was carried out. MV4-11 cells were incubated with BPR1K871 in a dose-dependent manner for 2.0 h. Cell lysates were prepared and analyzed by immunoblotting for both FLT3 phosphorylation (pFLT3 at residue Y591) and AURKA phosphorylation (pAURKA at residue T288).
Western blot analysis was conducted as previously described. Primary antibodies against phospho-FLT3 (Tyr591) (#3461) and phospho-AURKA (Thr288) (#3079) were purchased from Cell Signaling Technology. The anti-FLT3 antibody (sc-480) and anti-AURKA antibody (07–648) were purchased from Santa Cruz Biotechnology and Upstate, respectively. The anti-β-actin rabbit polyclonal antibody (GTX110564) was purchased from GeneTex (CA, USA). The secondary antibodies horseradish peroxidase (HRP)-linked goat anti-rabbit IgG (111-035-003) were purchased from Jackson Immuno (West Grove, PA, USA). MV4-11 cells were incubated with compound BPR1K871 for 2.0 h at the indicated concentrations. Cell lysates were prepared and analyzed by immunoblotting. For AURKA analysis, the cell lysates were obtained from MV4-11 cells incubated for 16 h with 40 ngmL^-1 nocodazole, followed by drug treatment for 2.0 h at the indicated concentrations.

[3] = system: MV4-11 tumor xenograft; assay: MV4-11 subcutaneous xenograft model; format: in vivo; conditions: nude mice, iv 1, 3 or 10 mg/kg days 1–5 and 8–12; hydrochloride salt; p < 0.05
Method: Based on the potent in vitro anti-proliferative activity of BPR1K871, it was planned to investigate the in vivo efficacy. […] Subsequently, based on the PK study, we evaluated the acute toxicity of BPR1K871 in ICR mice (n = 3) by iv administration. […] Next, the antitumor activity of BPR1K871 was evaluated through IV route in MOLM-13 and MV4-11 xenograft models (Figure 5). For this, nude mice were inoculated subcutaneously with MOLM-13 and MV4-11 cells in the left flank. […] For MOLM-13 model, BPR1K871 was injected intravenously at 10 mg/kg daily for 5 days (on days 1–5); also BPR1K871 was intravenously administrated at 3 and 1 mg/kg once a day for two continuous weeks (on days 1–5 and 8–12). For MV4-11 model, BPR1K871 was intravenously administrated at 10, 3 and 1 mg/kg once a day for two continuous weeks (on days 1–5 and 8–12).

[4] = system: COLO205 tumors
[5] = biological target: RET^M918T (Homo sapiens, UniProt P07949, M918T); assay: KINOMEScan, RET M918T; conditions: read-out: RET^M918T % control
RET^M918T, sequence (P07949 29-1114 M918T): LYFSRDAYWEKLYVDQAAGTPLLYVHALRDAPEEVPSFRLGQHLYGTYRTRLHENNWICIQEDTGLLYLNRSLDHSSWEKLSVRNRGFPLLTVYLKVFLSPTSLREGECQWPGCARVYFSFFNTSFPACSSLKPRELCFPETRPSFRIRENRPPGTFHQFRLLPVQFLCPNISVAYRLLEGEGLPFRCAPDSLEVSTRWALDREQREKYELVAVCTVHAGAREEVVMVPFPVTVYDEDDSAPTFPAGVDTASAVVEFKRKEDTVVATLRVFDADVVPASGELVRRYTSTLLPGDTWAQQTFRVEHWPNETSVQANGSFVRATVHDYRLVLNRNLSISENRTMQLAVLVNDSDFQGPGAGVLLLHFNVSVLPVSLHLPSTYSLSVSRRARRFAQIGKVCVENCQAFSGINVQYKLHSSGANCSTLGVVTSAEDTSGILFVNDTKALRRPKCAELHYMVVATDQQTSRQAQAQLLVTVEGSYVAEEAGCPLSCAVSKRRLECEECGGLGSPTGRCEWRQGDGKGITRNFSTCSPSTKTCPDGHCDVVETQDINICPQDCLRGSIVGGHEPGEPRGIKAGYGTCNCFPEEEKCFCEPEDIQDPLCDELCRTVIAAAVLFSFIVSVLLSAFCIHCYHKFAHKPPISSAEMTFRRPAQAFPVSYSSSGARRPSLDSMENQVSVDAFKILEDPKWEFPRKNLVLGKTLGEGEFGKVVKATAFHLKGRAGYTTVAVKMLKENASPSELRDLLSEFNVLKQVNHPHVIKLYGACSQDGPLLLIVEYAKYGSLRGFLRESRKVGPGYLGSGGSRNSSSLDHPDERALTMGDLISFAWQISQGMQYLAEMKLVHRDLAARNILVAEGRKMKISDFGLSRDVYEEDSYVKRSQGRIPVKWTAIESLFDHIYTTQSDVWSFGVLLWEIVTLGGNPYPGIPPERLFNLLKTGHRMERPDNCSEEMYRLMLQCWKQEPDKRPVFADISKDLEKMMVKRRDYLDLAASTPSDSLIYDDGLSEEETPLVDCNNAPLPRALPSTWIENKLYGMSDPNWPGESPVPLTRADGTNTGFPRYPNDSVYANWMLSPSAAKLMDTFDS

[6] = biological target: FLT3^R834Q (Homo sapiens, UniProt P36888, R834Q); assay: KINOMEScan, FLT3 R834Q; conditions: read-out: FLT3^R834Q % control

In the case of `CN(C)CCCOc1ccc2c(NCCc3cnc(NC(=O)Nc4cccc(Cl)c4)s3)ncnc2c1` [BPR1K871, 1-(3-Chlorophenyl)-3-(5-(2-((7-(3-(dimethylamino)propoxy)quinazolin-4-yl)amino)ethyl)thiazol-2-yl)urea], the EC50 [1] is reported as 212 nM, the “concentration that completely inhibited formation of pFLT3 (Tyr591)” value [2] is reported as 2 nM and the “growth / volume of MV4-11 tumor xenograft vs vehicle” value [3] is reported as “significantly reduced; also recorded: inhibited”. The “TGI ± SD” value ([4]; COLO205, 20 mg/kg iv once a day, days 1–5 and 8–12, day 15, n = 8) was 93 ± 9%, the body weight loss ([4]; COLO205 model, 20 mg/kg iv) was no more than 15% and the “mortality during the study” value ([4]; COLO205 model, 20 mg/kg iv) was “no mice died”. The remaining binding at 1 µM [5] was less than 0.5% and the remaining binding at 1 µM [6] was less than 5.2%.
